These are literature values, as cited in patent publication US20090318549A1, “COMBINATION TREATMENT OF GLAUCOMA” (QLT Plug Delivery, Inc., priority 2008, published 2009).

Structures are written as SMILES.

The conditions of data set [1]: man, after topical administration.

For the compound `CC(C)OC(=O)CCC/C=C\C[C@@H]1[C@@H](CC[C@@H](O)CCc2ccccc2)[C@H](O)C[C@@H]1O` [Latanoprost, isopropyl-(Z)-7[(1R,2R,3R,5S)3,5-dihydroxy-2-[(3R)-3-hydroxy-5-phenylpentyl]cyclopentyl]-5-heptenoate], in data set [1], the “time at which the peak concentration in the aqueous humor is reached” value was “about two”. For the same compound, for the setting “acetone, ethanol, ethyl acetate, isopropanol, methanol, octanol”, the “solubility in acetone, ethanol, ethyl acetate, isopropanol, methanol and octanol” value is listed as “freely soluble”. Besides, the solubility in acetonitrile result (acetonitrile) is “very soluble”. Where the note is “water”, the solubility in water result is “practically insoluble”.
